Experimental data: patent US20140045764A1, “NEUROPROTECTIVE PEPTIDES” (Neurim Pharmaceuticals (1991) Ltd., priority 2012, published 2014)
Marks after values point to notes of the source that are not given here.

Key:
[1] = Pharmacokinetics after subcutaneous administration in rats (plasma, LC-MS/MS); format: in vivo, Sprague Dawley rats; conditions: subcutaneous 1 mg/kg; for Cmax: male, Sprague-Dawley, sc, rat plasma, read-out: apparent Cmax
Description: The pharmacokinetics of the peptides was evaluated following SC peptide administration in male Sprague Dawley rats. Peptide solution was prepared using phosphate buffer saline (pH 7.4) as vehicle and was administered through subcutaneously at the dose of 1 mg/kg with dosing volume of 2 mL/kg.
Blood samples were collected at 0 (pre-dose) and 0.17, 0.5, 1, 2, 4, 8 and 24 hours following administration. At each time point, approximately 0.25 mL of blood was withdrawn through jugular vein of the cannulated rats and transferred to a pre-labeled microfuge tube containing 200 mM K2EDTA (20 μL per mL of blood). Following sampling equal volume of heparinized saline was flushed in to catheter. Blood samples were centrifuged at 5000 g for 5 minutes at 4±2° C. All the plasma samples were stored below −70° C. until analysis. A fit-for-purpose LC-MS/MS method was used for the quantification of the peptides in plasma samples. The lower limit of quantification (LLOQ) was 22.34 ng/mL.

MPTP-treated mice = test: MPTP mouse Parkinson's model, striatal dopamine and metabolites by HPLC; format: in vivo, C57BL mice; conditions: for DA / DOPAC / HVA: striatal level, peptide 1 mg/kg intranasal, divided by total protein and normalized to vehicle treated mice
Description: C57BL mice (all male, age 8-12 weeks, obtained from Harlan Laboratories Israel) were administered with 18 mg/kg MPTP (Sigma-Aldrich) at a dosage volume of 100 μl/mouse by intraperitoneal (IP) injection twice daily, 3 hrs apart on days 1 and 2. On study day 0 and for 8 consecutive days, mice were administered intranasally with PBS (vehicle) or one of the peptides at 1 mg/kg in 12 μl/mouse. All peptides used in in vivo studies were synthesized by LifeTein and were modified with N terminal acetylation and C terminal amidation. For intranasal instillation, each mouse was mildly anesthetized (2.5% Isoflurane) then restrained and held with the neck parallel to the table while a total volume of 12 μl was administered into the nostril. Six (6) μl was administered to the left nostril as two 3 μl drops, followed by a 15 sec hold, and 6 μl was administered to the right nostril as two 3 μl drops, followed by a 15 seconds hold. On day 8 the animals were euthanized by cervical dislocation. Immediately after euthanasia, the brains were removed and the striata dissected (left and right striatum were pooled), weighed and frozen in dry ice. The striata samples were homogenized in a solution containing 0.1 M perchloric acid and 10 ng/ml 3,4 dihydroxybenzylamine (DHBA) by 5 seconds sonication at 80 W. The supernatants of each tissue extract were injected directly to HPLC pump (Jasco PU-2080Plus) onto a reverse phase column (GL-Science, Inertsil ODS-2 5 um 4.6×150 mm at room temperature) coupled to an electrochemical detector Coulochem II ESA with a conditioning cell model 5021 and analytical cell model 5011. The working potential was set to 0.35V on the conditioning cell and 0.1V and −0.35V on the analytical cell. The mobile phase was 0.05M monobasic sodium phosphate, with 80 mg/L EDTA, 125 mg/L heptane sulfonic acid, 55 ml of methanol and 50 ml of acetonitrile pH=2.7. The flow rate was 1.5 ml/min. The dopamine, DOPAC and HVA values were normalized to the lysate protein concentration (BCA kit, Pierce).
In this model, repeated itraperitoneal injections of MPTP (18 mg/kg at 3-h intervals on two consecutive days) result in dopaminergic neuronal death in the substantia nigra and dopamine depletion of the striatum. The peptides (or vehicle) were applied twice daily by intranasal instillation at 1 mg/kg starting 1 day prior to exposure to MPTP and continued until the end of the study. 7 days after the injection of MPTP mice were sacrificed and striatal levels of dopamine (DA), […] (DOPAC) and homovanillic acid (HVA) were evaluated by HPLC.
Specifically Table 2 illustrates the effect of human V6 and V 10-derived peptides (1 mg/kg, intranasal administration) on the striatal level of dopamine and metabolites in MPTP-treated mice. Mice were treated according to the protocol described in the Materials and Methods. Striatal levels of DA, DOPAC and HVA were determined by HPLC, divided by the total protein content value and normalized to the levels obtained in vehicle treated mice. Groups 1 and 3 treated with 1:1 mix of normal designated and retro-inverso analog (D amino acids at reversed sequence). Group 6 was treated with 1:1 mix of 10B2.5—6 and 10B2.5—9 peptides.

[2] = test system: N2A mouse neuroblastoma cells; test: Protection of N2A cells from 6-OHDA (viability, alamar blue); format: cell-based; conditions: 30 or 40 μM 6-OHDA 22 hrs, peptide 10 fM and 1 μM
Description: All peptides were synthesized by LifeTein (South Pleinfield, N.J., USA) at >95% purity. N2A mouse neuroblastoma and SK-N-SH human neuroblastoma (ATCC) were maintained in Dulbecco's modified Eagle's medium supplemented with 10% fetal calf serum, L-Glut and 1% Penicillin-Streptomycin (Beit Haemek, Israel). Cells were maintained in an incubator at 37° C. with 5% CO2. SK-N-SH cells were treated with 3 μM RA (Sigma-Aldrich) for 5 days prior to each experiment to allow the cells to differentiate towards neuronal cells. […] The intensity of the water soluble dye is proportional to the number of metabolic active cells. […] The viability assay was followed by caspase 3 assay (EnzChek Caspase3 Assay kit, Invitrogen, Carlsbad, Calif., USA) according to the manufacture's instructions
All methods are the same as in Example 1 above. Peptides and 6-hydroxydopamine were purchased from Sigma-Aldrich (St. Lewis, USA).
These peptides were screened for their protective effect on 6-hydroxydopamine (6-OHDA) treated N2A cells at 1 pM concentration. 6-OHDA is a dopamine analogue that is commonly used in model systems to mimic Parkinson's disease in vitro and in vivo, 6-OHDA induces apoptosis through release of reactive oxygen species (ROS) and by a possible direct effect on the mitochondrial respiratory chain. […] The protective effect of some of the peptides was tested in a wide dose range. […] The peptide panel was also tested for their effect on Aβ (25-35) induced toxicity in SK-N-SH human neuroblastoma cells at pM concentration. The profile of peptides effective against the Aβ stress was strikingly different than the 6-OHDA-effective peptides (FIGS. 7A-B).
The peptides shown on Table 3 were tested for their effect in protecting N2A from 6-OHDA (FIG. 8). […] Such modifications include C-terminus truncation (26-1, 26-2 and 26-3), replacement of the N-terminal glutamic acid residue with glutamine and histidine at position 7 with alanine (26-8 and 26-9, respectively).

[3] = test system: Aβ(1-42) microinjection rat model; test: Aβ(1-42) microinjection rat model, IH/ICV peptide, novel object recognition; format: in vivo, Sprague Dawley rats; conditions: 21 days after Aβ injection, p<0.01 versus vehicle
Description: Aβ(1-42) (Sigma-Aldrich, USA), was dissolved in filtered PBS at the concentration of 6 μg/μl, and the solution kept at 37° C. for 2 days before use. One microliter of the solution was injected by means of a microsyringe into the right hippocampus under sodium pentobarbital (55 mg/kg i.p.) anesthesia at the stereotaxic coordinates: AP=−3.6, ML=2.0, from Bregma and DV=3.0 from the skull. Control rats were injected with 1 μl of PBS. In the IH/ICV study, 1 μl of the peptide or PBS was also injected into the right hippocampus at the same stereotaxic coordinates.
For ICV injection, a microinjection cannula was planted into the lateral cerebral ventricle according to the following stereotaxic coordinates: AP=−1, ML=1.6, DV=3.8. […]
The training apparatus was a black Plexiglas box (50×50×40 cm) placed in a sound-attenuating cabinet which was located in a brightly lit and isolated room. […] During the training trial, the rat was placed in the box and allowed to explore two identical objects for 10 min and the total time spent exploring both objects was recorded. […] The rat was placed in the box for 3 min and the time spent exploring each object and the total time spent exploring both objects were recorded. The discrimination index used to assess memory was calculated as the difference in time exploring the novel and familiar object, expressed as the ratio of the total time spent exploring both objects. […]

[4] = test system: Met tyrosine kinase receptor; conditions: literature reference [24]; cited from earlier work

Molecule | DA (MPTP-treated mice) | DOPAC (MPTP-treated mice) | HVA (MPTP-treated mice) | activity in protecting N2A from 6-OHDA [2] | levels of at least one of the 2 DA metabolites, DOPAC and HVA (MPTP-treated mice; 1 mg/kg intranasal) | other results
CC(=O)N1CCC[C@@H]1C(=O)N[C@H](Cc1ccc(O)cc1)C(=O)N[C@H](Cc1c[nH]cn1)C(=O)N[C@H](CO)C(=O)N[C@@H](C(=O)N[C@H](Cc1ccc(O)cc1)C(=O)NCC(=O)N[C@H](CCC(=O)O)C(N)=O)[C@H](C)O (relative stereo) [26-RI, *P*Y*H*S*T*Y*G*E] | – | – | – | – | – | Cmax [1]: 1230 ng/mL; improvement of Cmax compared to P26 ([1]; rat): 10 fold
Ac-EGYTSHYP-NH2 (N-terminus and C-terminus assumed) [V10A1_N+4, EGYTSHYP] | – | – | – | – | – | Cmax [1]: 130 ng/mL
EDSH (Human V6B1_C4 peptide) [hV6B1_C4] | 20.7 | 41.7 | 16.6 | – | – | –
EGYTS (Human 26-3 peptide) | – | – | – | maintaining at least partial activity | – | –
EGYTSAYP (Human 26-9 peptide) | – | – | – | maintaining at least partial activity | – | –
EGYTSH (Human 26-2 peptide) | – | – | – | maintaining at least partial activity | – | –
EGYTSHY (Human 26-1 peptide) | – | – | – | maintaining at least partial activity | – | –
FGVTAVTV (Human V10B1_8 peptide (also referred to as P34)) | 46.6 * | 75.9 ** | 83.3 ** | – | increased significantly | effect on striatal DA level compared to the vehicle control (MPTP-treated mice; 1 mg/kg intranasal): significantly positive effect; discrimination index, novel object recognition ([3]; 10 ng/rat IH/ICV): increased significantly; discrimination index, novel object recognition ([3]; 100 ng/rat IH/ICV): increased significantly
NRWHE (A pentapeptide derived from the human V6) | – | – | – | – | – | inhibiting hepatocyte growth factor (HGF) signal transduction through Met tyrosine kinase receptor [4]: capable of inhibiting
NVNRSL (Human V10B2.5_6 peptide) | – | – | – | – | increased significantly | –
NVNRSLSGD (Human V10B2.5_9 peptide) | – | – | – | – | increased significantly | –
PVTSAKTGSFG [V10A/B_S] | 26.6 | 27.2 | 13.7 | – | – | –
QGYTSHYP (Human 26-8 peptide) | – | – | – | maintaining at least partial activity | – | –
TTLLEG (Human V10A1_N6 peptide) | 17.7 | 24.3 | −0.7 | – | – | –
hV10A2: human CD44V10-derived peptide, SEQ ID NO: 12; sequence not printed (TKESRTFIPVTSAKT; Human V10A2 peptide) | 24.7 | 54.8 * | 73.4 ** | – | increased significantly | –
hV10B3: human CD44V10-derived peptide, SEQ ID NO: 15; sequence not printed (SLSGDQDTFHPSG; Human V10B3 peptide) | 18.1 | 22.5 | 44.2 * | – | increased significantly | –
